Values joined by “and” are separate entries in the source; they are usually repeats but may differ in a detail not shown here. Identical values can stand only once.
How the values were obtained:
YAC-1 cells = test: In vitro potentiation of murine natural killer cell activity (mouse spleen cells, 51Cr release); format: cell-based
Method: After incubation the cytotoxicity of the treated and untreated cells was determined against YAC-1 cells.
^a Spleen cells from mice were treated with 0.05 mM concentration of
amino acids and 5 × 10^-5 M Mercaptoethanol. The effector cells
were then tested for their cytotoxic activity against YAC1 target cells i
4 hr ^51 Cr release assay.
^a Spleen cells from mice were incubated in the absence and presence
of various compounds. After incubation, cells were suspended in complete
medium and then their cytotoxic activity was determined against YAC1
target cells as described in the text

[1] = system: Reticulum-cell Sarcoma M5076; test: Reduction of reticulum-cell sarcoma metastatic foci in mice; format: in vivo, mouse
Method: Utilizing the protocol of Alessandri, G., Giavazzi, R., Falautano, P., Spreafico, F., Garattini, S., and Mantovani, A., European J. Cancer, 17:651-658, 1981, the antimetastatic activity of Compound 7 is seen in a sarcoma M5076 tumor system.
Fragments of reticulum-cell sarcoma M5076 were introduced into mice. The animals were treated with compound 7 for 20 days at various dosages. After treatment, the required tissues were collected, fixed in Bouin's solution and subjected to microscopic observation to enumerate metastatic foci. The results are shown in table 26 as the number of metastatic foci and table 27 as the number of mice with metastatic foci. In table 26 both the range and the median number of foci for each test group is indicated.
^a Fragments of reticulumcell sarcoma M5076 (≈14 mg) were
implanted sc in the left flank of BDF1 female mice and ip bolus
injections of drug were initiated 24 hrs later. The drug was delivered on
the basis of 0.01 ml/g mouse weight. Control mice received a 0.09%
solution of NaCl delivered on the same basis. Seven mice were used per
treatment group. Treatment give qd for days 1- 20.

sheep red blood cells = test: Primary anti-sheep red blood cell antibody response in mice (plaque assay); format: in vivo, mouse; conditions: C57BL/6, + SRBC, day 6
Method: Compound 7 was tested to determine its effects on primary antibody response against sheep red blood cells in vivo. Mice (C57BL/6) in groups of 4 were injected intraperitoneally with 0.1% sheep red blood cell suspended in saline. At various times compound 7 in various concentrations was administered intraperitoneally.
^a Groups of four C57BL/6 mice were injected i.p. with 6.5 ×
10^6 SRBC and various doses of compound 7. The number of PFC to SRBC
(shown as mean ± SD) were determined on day 6 as described in Cheever.
For Table 9 the number of antibody cells was determined by the modified Jerne, Nordin plaque assay as disclosed in Jerne, N. K., Nordin, A. A., Science 140:405, 1963.

Banzi Virus = format: in vivo, mouse; conditions: compound 7 100 mg/kg at -24 h, saline days 0-6; of mice that died
Friend Leukemia virus = Friend Leukemia virus induced spleenomegaly; format: in vivo; conditions: further test
Source text: As is evident from the above tables antiviral activity against a variety of viruses is seen.

YAC1 target cells = test: Natural killer cell activity in nude/nude mice (in vivo treatment, spleen cells); parameters: species or system mouse
Source text: Compound 7 was also able to potentiate markedly the natural killer cell activity in T cell deficient (nude/nude) mice as is shown in Table 6.
^a Three mice in each group received saline or compound 7 through i.p
route, spleens were removed one day after the treatment, cells were
cells. Each value represents average ±SD cytotoxic activity of three

Influenza B Virus = test: Antiviral activity against Influenza B virus infection in mice; format: in vivo, mouse; conditions: for Mean Survival Time: once a day at -2 h and days 2, 4, 6
Method: Compound 7 was tested therapeutically against Influenza B Virus Infection in Mice. In addition to a saline control Ribavirin, a known antiviral, was utilized for test purposes.
hours previrus inoculation.
^c p < .001 twotailed ttest.

P8/5 tumor target cells = test: Activation of macrophages following single injection in CBA/CaJ mice; format: in vivo; conditions: Mus musculus, Macrophage
Method: The activity of compound 7 with respect to its ability to activate macrophages was tested by injecting CBA/CaJ mice with a single dose of compound 7 (2 mg per mouse) and after 24 hours the cytotoxicity of the spleen cells (SC), non adherent SC and adherent SC was determined.
^a A group of four mice (CBA/CaJ) were injected with 2 mg/mouse of
compound -7 solution. Control group received saline. After 24 hours of
injection, spleens were harvested. Adherent and nonadherent cells were
separated by incubation of spleen cells on plastic plates for one hour.
Cell suspension of spleen cells, nonadherent cells (NC) and adherent cell
(AC) were prepared in complete medium. Cytotoxicity of SC, NC and AC was
then measured against P8/5 tumor t arget cells in 4 hrs and 20 hrs
chromium release assay.

Rat Coronavirus = test: Antiviral activity against rat coronavirus infection in suckling rats; format: in vivo; conditions: half daily doses at -24 and -18 h, of rats that died
Source text: Four to five day old suckling rats were infected intranasally with rat coronavirus. One day previously a divided intraperitoneal dose of compound 7 or placebo was given. As shown in the following Table 19, a high percentage of the rats treated with compound 7 survived this lung infection. Further the rats that died lived longer than the placebo-treated controls.
^b Of rats that died. Survivors lived through 21 days.

[2] = 62 mg/kg ip qd days 1-20, p < 0.005

**Q.** Which “natural killer cell activity compared to Poly I:C” value (YAC-1 cells; 0.05 mM, 20 to 44 h) does the source give for `Nc1nc2c(sc(=O)n2[C@@H]2O[C@H](CO)[C@@H](O)[C@H]2O)c(=O)[nH]1` [Compound 7, 5-Amino-3-β-D-ribofuranosylthiazolo[4,5-d]pyrimidine-2,7(6H)-dione] here?
**A.** The value was “increased activity compared to Poly I:C”.

**Q.** What about the “% Natural Killer Cell Cytotoxicity” value (YAC-1 cells; C57BL/6J spleen cells, treatment 0 h, compound 7 at 0.05 mM) of the same compound?
**A.** The value was 18%.

**Q.** What about the “% Natural Killer Cell Cytotoxicity” value (YAC-1 cells; C57BL/6J spleen cells, treatment 20 h, compound 7 at 0.05 mM) of the same compound?
**A.** Its value is 35% and 25%.

**Q.** And the “% Natural Killer Cell Cytotoxicity” value (YAC-1 cells; C57BL/6J spleen cells, treatment 44 h, compound 7 at 0.05 mM)?
**A.** The value was 34% and 22%.

**Q.** And the “% Natural Killer Cell Cytotoxicity” value (YAC-1 cells; CBA/CaJ spleen cells, treatment 0 h, compound 7 at 0.05 mM)?
**A.** Its value is 15% and 23%.

**Q.** What about the “% Natural Killer Cell Cytotoxicity” value (YAC-1 cells; CBA/CaJ spleen cells, treatment 20 h, compound 7 at 0.05 mM) of the same compound?
**A.** Its value is 34% and 62%.

**Q.** And the “% Natural Killer Cell Cytotoxicity” value (YAC-1 cells; CBA/CaJ spleen cells, treatment 44 h, compound 7 at 0.05 mM)?
**A.** The value was 31% and 44%.

**Q.** And the “% Natural Killer Cell Cytotoxicity” value (YAC-1 cells; Table 21, 0.05 mM)?
**A.** The value was 34.5% and 25% and 28%.

**Q.** What about the “Mice With Metastatic Foci in Lung (+/7)” value ([1]; 37 mg/kg ip qd days 1-20) of the same compound?
**A.** The value was 7/7.

**Q.** And the “Number of Metastatic Foci in Liver, Range” value (“Number … in Liver, Range” below) ([1]; 37 mg/kg ip qd days 1-20)?
**A.** The value was 0-17.

**Q.** What about the “Number of Metastatic Foci in Lung, Range” value ([1]; 37 mg/kg ip qd days 1-20) of the same compound?
**A.** The value was 1-11.

**Q.** And the “Number of Metastatic Foci in Liver, Medium” value (from here on “Number … Medium”) ([1]; 37 mg/kg ip qd days 1-20, p < 0.005)?
**A.** The value was 1.

**Q.** And the “Number of Metastatic Foci in Lung, Median” value (from here on “Number … Median”) ([1]; 37 mg/kg ip qd days 1-20, p < 0.01)?
**A.** Its value is 6.

**Q.** And the “Mice With Metastatic Foci in Liver (+/7)” value ([1]; 37 mg/kg ip qd days 1-20, p < 0.05)?
**A.** Its value is 4/7.

**Q.** And the “Mice With Metastatic Foci in Lung (+/7)” value ([1]; 62 mg/kg ip qd days 1-20)?
**A.** Its value is 6/7.

**Q.** What about the “Number … in Liver, Range” value ([1]; 62 mg/kg ip qd days 1-20) of the same compound?
**A.** Its value is 0-1.

**Q.** And the “Number of Metastatic Foci in Lung, Range” value ([1]; 62 mg/kg ip qd days 1-20)?
**A.** The value was 0-29.

**Q.** What about the “Mice With Metastatic Foci in Liver (+/7)” value [1, 2] of the same compound?
**A.** The value was 1/7.

**Q.** What about the “Number … Medium” value [1, 2] of the same compound?
**A.** Its value is 0.

**Q.** What about the “Number … Median” value ([1]; 62 mg/kg ip qd days 1-20, p < 0.09) of the same compound?
**A.** Its value is 2.

**Q.** What about the “Number … in Liver, Range” value ([1]; 104 mg/kg ip qd days 1-20) of the same compound?
**A.** The value was 0-0.

**Q.** And the “Number of Metastatic Foci in Lung, Range” value ([1]; 104 mg/kg ip qd days 1-20)?
**A.** The value was 0-4.

**Q.** What about the “Mice With Metastatic Foci in Liver (+/7)” value ([1]; 104 mg/kg ip qd days 1-20, p < 0.0005) of the same compound?
**A.** Its value is 0/7.

**Q.** And the “Number … Medium” value ([1]; 104 mg/kg ip qd days 1-20, p < 0.0009)?
**A.** Its value is 0.

**Q.** What about the “Number … Median” value ([1]; 104 mg/kg ip qd days 1-20, p < 0.003) of the same compound?
**A.** Its value is 0.

**Q.** And the “Mice With Metastatic Foci in Lung (+/7)” value ([1]; 104 mg/kg ip qd days 1-20, p < 0.025)?
**A.** Its value is 3/7.

**Q.** What about the “PFC/10^6 Spleen Cells” value (sheep red blood cells; 1.9 mg i.p.) of the same compound?
**A.** The value was 143 ± 140 PFC/10^6 Spleen Cells.

**Q.** What about the “PFC/10^6 Spleen Cells” value (sheep red blood cells; 2.97 mg i.p.) of the same compound?
**A.** Its value is 307 ± 156 PFC/10^6 Spleen Cells and 165 ± 28 PFC/10^6 Spleen Cells.

**Q.** And the “PFC/10^6 Spleen Cells” value (sheep red blood cells; 3.3 mg i.p.)?
**A.** Its value is 176 ± 105 PFC/10^6 Spleen Cells.

**Q.** What about the “PFC/10^6 Spleen Cells” value (sheep red blood cells; 4.95 mg i.p.) of the same compound?
**A.** The value was 467 ± 170 PFC/10^6 Spleen Cells and 433 ± 172 PFC/10^6 Spleen Cells.

**Q.** And the “PFC/10^6 Spleen Cells” value (sheep red blood cells; 4.97 mg i.p.)?
**A.** The value was 371 ± 56 PFC/10^6 Spleen Cells.

**Q.** And the “Mean Survival Time” value (Banzi Virus)?
**A.** Its value is 9.3 ± 1.0 days.

**Q.** What about the “antiviral activity against Friend Leukemia virus induced spleenomegaly” value (Friend Leukemia virus) of the same compound?
**A.** Its value is “little or no antiviral activity”.

**Q.** What about the “% Natural Killer Cell Cytotoxicity” value (YAC1 target cells; 1.67 mg i.p., E:T 50:1) of the same compound?
**A.** Its value is 43 ± 12%.

**Q.** And the “% Natural Killer Cell Cytotoxicity” value (YAC1 target cells; 1.67 mg i.p., E:T 100:1)?
**A.** The value was 56 ± 12%.

**Q.** And the “% Natural Killer Cell Cytotoxicity” value (YAC1 target cells; 1.67 mg i.p., E:T 150:1)?
**A.** Its value is 61 ± 14%.

**Q.** What about the “% Natural Killer Cell Cytotoxicity” value (YAC1 target cells; 3.34 mg i.p., E:T 50:1) of the same compound?
**A.** Its value is 38 ± 6%.

**Q.** And the “% Natural Killer Cell Cytotoxicity” value (YAC1 target cells; 3.34 mg i.p., E:T 100:1)?
**A.** Its value is 56 ± 6%.

**Q.** What about the “% Natural Killer Cell Cytotoxicity” value (YAC1 target cells; 3.34 mg i.p., E:T 150:1) of the same compound?
**A.** Its value is 61 ± 12%.

**Q.** What about the “increase with respect to saline control” value (YAC1 target cells; both doses tested) of the same compound?
**A.** The value was “over two fold”.

**Q.** What about the “Mean Survival Time” value (Influenza B Virus; 50 mg/kg/day) of the same compound?
**A.** Its value is 6.4 ± 1.5 days.

**Q.** What about the “Mean Survival Time” value (Influenza B Virus; 100 mg/kg/day) of the same compound?
**A.** Its value is 6.6 ± 1.1 days.

**Q.** And the “efficacy against influenza B (in words)” value (Influenza B Virus; Table 12)?
**A.** Its value is “efficacy between saline, having no antiviral activity against influenza, and Ribavirin”.

**Q.** And the “antiviral activity against influenza B virus, further test” value (Influenza B Virus; further test)?
**A.** Its value is “little or no antiviral activity”.

**Q.** What about the cytotoxicity at 2 mg (P8/5 tumor target cells; 4 h, adherent cells, 4 hrs assay) of the same compound?
**A.** The cytotoxicity at 2 mg was 37%.

**Q.** What about the cytotoxicity at 2 mg (P8/5 tumor target cells; 4 h, nonadherent spleen cells, 4 hrs assay) of the same compound?
**A.** Its cytotoxicity at 2 mg is 45%.

**Q.** What about the cytotoxicity at 2 mg (P8/5 tumor target cells; 20 h, adherent cells, 20 hrs assay) of the same compound?
**A.** The cytotoxicity at 2 mg was 69%.

**Q.** What about the cytotoxicity at 2 mg (P8/5 tumor target cells; 20 h, nonadherent spleen cells, 20 hrs assay) of the same compound?
**A.** Its cytotoxicity at 2 mg is 70%.

**Q.** What about the “Mean Survival Time” value (Rat Coronavirus; 50) of the same compound?
**A.** Its value is 10.1 ± 2.3 days.

**Q.** And the “Mean Survival Time” value (Rat Coronavirus; 100)?
**A.** The value was 10.2 ± 1.8 days.

**Q.** And the “Mean Survival Time” value (Rat Coronavirus; 200)?
**A.** The value was 13.0 ± 1.0 days.
